Results on 13 compounds are retold here after PubChem BioAssay (NCI).

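Interpolation was linear, between the two tested concentrations surrounding the appropriate level; five concentrations were tested over 48 hours in 96-well plates. The concentration for 50% growth inhibition is given as GI50. TGI: total growth inhibition.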

Common to all, as to assay: growth of human tumour cells (NCI), 48 h
In assay [1] the test system is A498 renal.
For assay [2], the system named is HL-60(TB) leukemia.
The subject of assay [3] is HOP-92 NSCLC.
Assay [4] deals with MALME-3M melanoma.
The test system of assay [5] is MOLT-4 leukemia.
In assay [6] the test system is NCI-H23 lung.
In assay [7] the test system is SF-539 CNS.
Assay [8] relates to SK-MEL-28 melanoma.
The test system of assay [9] is MDA-MB-231 breast.
The test system of assay [10] is SR leukemia.

As to `C=C(C(=C)P(=S)(c1ccccc1)c1ccccc1)P(=S)(c1ccccc1)c1ccccc1`, the TGI in assay [1], in [2], in assay [3], in assay [4], in [5] and in assay [6] was more than 100 µM throughout. The TGI in assay [7] and in assay [8] was more than 100 µM each time.

In the case of `COc1ccc(-n2ccnc2-c2cc(OC)c(OC)c(OC)c2)cc1`, the GI50 is 798 nM in assay [1]; 20000 nM in assay [3]; 747 nM in assay [4]; 6.13 µM in assay [9]; 5.75 µM in assay [5]; 3300 nM in assay [6]. The values for the GI50 in assay [7] and in assay [8] were 3270 nM and 2990 nM, respectively. The TGI in assay [1] is 5.14 µM; in assay [3], more than 100 µM; in assay [4], more than 100 µM; in [9], more than 100 µM; in [5], more than 100 µM; in assay [6], 65 µM. In addition, the TGI in [7] is 29.1 µM; in assay [8] it was more than 100 µM.

In the case of `COc1ccccc1NC(=O)c1nc2ccc([N+](=O)[O-])cc2nc1C`, the TGI in assay [1], in assay [3], in assay [4], in assay [5], in assay [6] and in assay [7] was more than 100 µM throughout. In addition, in assay [8], the TGI is more than 100 µM.

In the case of `COc1ccc(C(=O)C(c2ccc(OCc3ccccc3)cc2)c2ccc(OCc3ccccc3)cc2)cc1`, the TGI in assay [2], in assay [3], in assay [4], in assay [5], in assay [6] and in [7] was more than 100 µM throughout. For the same compound, the TGI in [8] and in [10] was more than 100 µM throughout.

As to `CN1CCN(C)C12C=CC=CC21CC1`, the TGI in assay [1], in assay [2], in assay [3], in [4], in assay [5] and in [6] was more than 100 µM each time. Also, the TGI in [7] and in assay [10] was more than 100 µM in each case.

Consider `CC1=CC(N2C(=O)C(C)=CC2O)NC1=O` (stereo not given), for which the TGI in assay [2], in assay [3], in assay [4], in assay [6], in [7] and in assay [8] was more than 100 µM throughout. Moreover, in assay [10], the TGI is more than 100 µM.

`Nc1cc(=O)n(-c2ccccc2)c(=S)n1-c1ccccc1`: the TGI in [1], in assay [4], in assay [5] and in assay [7] was more than 100 µM throughout.

Consider `CC(=O)NC1C(OCc2ccccc2)OC(COC(=O)CCCCCCCCCCNc2ccc([N+](=O)[O-])c3[nH]c4ccccc4c(=O)c23)C(O)C1OC(C)C(=O)NC(C)C(=O)NC(CCC(N)=O)C(=O)OCc1ccccc1` (stereo not given), for which the TGI in assay [1], in assay [2], in assay [5], in assay [6], in [7] and in assay [8] was more than 100 µM in each case. In addition, the TGI in assay [10] was more than 100 µM.

As to `COC(=O)C1=C(C(=O)OC)C2(C)Nc3ccccc3C2=C(c2ccccc2)C1` (stereo not given), the TGI in assay [2] is 41.5 µM; in assay [3], 38.9 µM; in assay [4], 37.1 µM; in assay [5], 29.6 µM; in assay [6] it was 45.7 µM; in assay [7], 37.5 µM. For the same compound, the TGI in [8] amounted to 40.7 µM.

Consider `COc1cc2c(cc1OC)C1Cc3cc(OC)c(OC)cc3C(C2)N1C`, for which the TGI was more than 100 µM in assay [1]; more than 75 µM in assay [2]; more than 75 µM in assay [3]; more than 100 µM in [4]; more than 75 µM in assay [9]; more than 100 µM in assay [5]. The TGI in assay [6] was more than 100 µM; in [7], more than 75 µM; in assay [8] it was more than 100 µM.

For `O=C(Nc1ccccc1)c1cc(S(=O)(=O)Nc2nc3ccccc3o2)c(SCc2ccccc2)cc1Cl`, the GI50 in [1] is 15200 nM; in assay [9] it was 18.3 µM; in assay [5], 13.3 µM; in [6] it was 21200 nM; in assay [7], 15800 nM; in assay [8], 22700 nM. In addition, the TGI in assay [1] was determined as 34.6 µM; in assay [9], 42.4 µM; in assay [5], 37.8 µM; in assay [6], 44.9 µM; in [7], 31.1 µM; in assay [8], 51.9 µM.

For `Clc1cc(Cl)cc(N2N=C(c3cccc(Nc4ccncc4)c3)CC2c2ccc3c(c2)OCO3)c1` (stereo not given), the GI50 was 1340 nM in [1]; 1390 nM in [3]; 1.37 µM in assay [9]; 1.88 µM in [5]; 1790 nM in assay [6]; 1840 nM in assay [7]. In addition, in assay [8], the GI50 is 1840 nM. In addition, the TGI was determined as 4.54 µM in assay [1]; 2.82 µM in assay [3]; 2.72 µM in assay [9]; 4.49 µM in [5]; 3.45 µM in [6]; 3.31 µM in assay [7]. The TGI in [8] was found to be 3.36 µM.

With `CC(=O)OC1CC2C3CCC4C[C@@H](NC(=O)C=C(C)C)CC[C@]4(C)C3CC[C@]2(C)[C@H]1C(C)N(C)C` (stereo not given in full), the GI50 in [1] was 1710 nM; in [2], 2230 nM; in assay [3], 890 nM; in [4], 2040 nM; in assay [9] it was 2.1 µM; in assay [5], 1.32 µM. Besides, the GI50 is 2550 nM in assay [6], 1270 nM in assay [7] and 1750 nM in [8]. Also, the TGI in assay [1] was 4.51 µM; in assay [2], 5.46 µM; in [3] it was 4.06 µM; in assay [4], 4.53 µM; in assay [9] it was 4.72 µM; in assay [5], 4.18 µM. Also, the results for the TGI in [6], in assay [7] and in assay [8] were 8.56 µM, 2.62 µM and 3.39 µM, respectively.
